This is an account of results in ChEMBL document CHEMBL3991601, “The target landscape of clinical kinase drugs” (Science, 2017).

Molecules are shown by their SMILES. Calls of active or inactive are those of the source. Cut-off read from the data, not from the text of the source, for most assays here: actives have a measured Kd and inactives only a lower limit.

For assay [1], the target named is T1, Uncharacterized protein FLJ45252 (Homo sapiens, UniProt Q6ZSR9).
T1 sequence (Q6ZSR9 whole entry): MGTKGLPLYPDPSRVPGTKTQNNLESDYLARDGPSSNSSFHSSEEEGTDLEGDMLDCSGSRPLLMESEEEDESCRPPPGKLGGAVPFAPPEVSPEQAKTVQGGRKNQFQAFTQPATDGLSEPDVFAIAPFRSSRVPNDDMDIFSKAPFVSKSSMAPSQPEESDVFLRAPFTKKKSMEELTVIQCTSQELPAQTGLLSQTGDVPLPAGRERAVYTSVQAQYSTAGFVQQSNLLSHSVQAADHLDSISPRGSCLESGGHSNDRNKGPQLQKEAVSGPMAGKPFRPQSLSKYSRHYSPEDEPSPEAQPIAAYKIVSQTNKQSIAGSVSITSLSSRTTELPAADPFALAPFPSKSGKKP
Conditions: read-out: Kd apparent; k-562, colo 205, sk-n-be(2) and mv-4-11.

Another assay concerns the target Wee1-like protein kinase (Homo sapiens, UniProt P30291).
Assay [2] has as its target T2, Adenine phosphoribosyltransferase (Homo sapiens, UniProt P07741).
T2 sequence (P07741 whole entry): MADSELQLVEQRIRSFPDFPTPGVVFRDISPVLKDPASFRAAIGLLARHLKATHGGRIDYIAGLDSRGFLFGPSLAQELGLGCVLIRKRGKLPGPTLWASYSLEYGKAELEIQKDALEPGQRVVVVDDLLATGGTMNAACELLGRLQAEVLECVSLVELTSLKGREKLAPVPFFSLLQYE

Assay [3] concerns the target Tyrosine-protein kinase CSK (Homo sapiens, UniProt P41240).
The target of assay [4] is T3, Delta(24)-sterol reductase (Homo sapiens, UniProt Q15392).
T3 sequence (Q15392 whole entry): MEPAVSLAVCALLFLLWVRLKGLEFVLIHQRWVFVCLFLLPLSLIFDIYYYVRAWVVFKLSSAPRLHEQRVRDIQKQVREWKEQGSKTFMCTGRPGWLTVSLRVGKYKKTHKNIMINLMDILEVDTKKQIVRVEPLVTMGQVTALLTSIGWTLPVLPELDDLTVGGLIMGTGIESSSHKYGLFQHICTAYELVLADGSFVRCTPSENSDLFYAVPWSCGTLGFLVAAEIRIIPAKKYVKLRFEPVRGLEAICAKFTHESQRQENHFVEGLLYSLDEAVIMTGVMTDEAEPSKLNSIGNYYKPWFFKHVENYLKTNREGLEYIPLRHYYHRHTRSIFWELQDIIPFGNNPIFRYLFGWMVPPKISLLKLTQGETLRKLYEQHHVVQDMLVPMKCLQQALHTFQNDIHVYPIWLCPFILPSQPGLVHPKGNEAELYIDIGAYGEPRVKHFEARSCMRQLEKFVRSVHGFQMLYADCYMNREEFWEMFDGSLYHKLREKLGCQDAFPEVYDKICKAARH

Assay [5] concerns the target T4, ATP-dependent 6-phosphofructokinase, platelet type (Homo sapiens, UniProt Q01813).
T4 sequence (Q01813 whole entry): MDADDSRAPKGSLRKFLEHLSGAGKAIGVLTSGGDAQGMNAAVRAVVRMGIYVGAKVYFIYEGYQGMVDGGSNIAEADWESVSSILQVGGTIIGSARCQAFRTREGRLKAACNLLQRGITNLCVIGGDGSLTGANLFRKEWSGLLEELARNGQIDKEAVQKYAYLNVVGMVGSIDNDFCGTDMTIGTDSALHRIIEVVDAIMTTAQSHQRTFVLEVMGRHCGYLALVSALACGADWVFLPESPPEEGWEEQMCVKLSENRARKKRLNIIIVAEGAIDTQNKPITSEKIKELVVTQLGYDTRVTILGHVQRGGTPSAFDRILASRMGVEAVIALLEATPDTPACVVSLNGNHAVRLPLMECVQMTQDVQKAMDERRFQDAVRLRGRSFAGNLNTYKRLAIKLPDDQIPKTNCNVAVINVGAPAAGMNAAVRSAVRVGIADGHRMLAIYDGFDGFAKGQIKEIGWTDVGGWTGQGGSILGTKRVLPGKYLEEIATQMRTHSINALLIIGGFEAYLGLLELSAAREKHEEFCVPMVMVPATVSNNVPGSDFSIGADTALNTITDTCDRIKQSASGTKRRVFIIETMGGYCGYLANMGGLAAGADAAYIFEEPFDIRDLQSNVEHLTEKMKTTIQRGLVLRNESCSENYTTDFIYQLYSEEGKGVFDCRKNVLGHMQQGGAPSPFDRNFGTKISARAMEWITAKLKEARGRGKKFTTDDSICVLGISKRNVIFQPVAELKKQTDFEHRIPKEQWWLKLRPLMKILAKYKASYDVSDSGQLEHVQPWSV

The target of assay [6] is Calcium/calmodulin-dependent protein kinase kinase 2 (Homo sapiens, UniProt Q96RR4).
Chain of Calcium/calmodulin-dependent protein kinase kinase 2 (Q96RR4 whole entry): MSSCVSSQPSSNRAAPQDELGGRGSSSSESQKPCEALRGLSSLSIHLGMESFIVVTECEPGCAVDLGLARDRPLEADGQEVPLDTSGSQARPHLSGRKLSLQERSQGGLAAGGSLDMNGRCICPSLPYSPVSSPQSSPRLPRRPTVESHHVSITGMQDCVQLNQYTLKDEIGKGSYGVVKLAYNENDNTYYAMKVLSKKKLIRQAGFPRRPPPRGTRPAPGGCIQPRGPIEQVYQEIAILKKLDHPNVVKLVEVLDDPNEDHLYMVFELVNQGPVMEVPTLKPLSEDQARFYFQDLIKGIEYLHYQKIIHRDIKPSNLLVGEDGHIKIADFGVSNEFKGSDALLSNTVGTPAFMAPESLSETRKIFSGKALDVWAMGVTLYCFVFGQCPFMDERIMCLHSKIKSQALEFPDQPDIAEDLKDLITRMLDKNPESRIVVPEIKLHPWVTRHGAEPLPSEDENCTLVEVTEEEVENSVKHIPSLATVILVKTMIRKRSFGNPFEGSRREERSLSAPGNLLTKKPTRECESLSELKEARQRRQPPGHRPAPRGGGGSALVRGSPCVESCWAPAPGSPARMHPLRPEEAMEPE
In assay [7] the target is T5, Succinate--CoA ligase [ADP-forming] subunit beta, mitochondrial (Homo sapiens, UniProt Q9P2R7).
T5 sequence (Q9P2R7 whole entry): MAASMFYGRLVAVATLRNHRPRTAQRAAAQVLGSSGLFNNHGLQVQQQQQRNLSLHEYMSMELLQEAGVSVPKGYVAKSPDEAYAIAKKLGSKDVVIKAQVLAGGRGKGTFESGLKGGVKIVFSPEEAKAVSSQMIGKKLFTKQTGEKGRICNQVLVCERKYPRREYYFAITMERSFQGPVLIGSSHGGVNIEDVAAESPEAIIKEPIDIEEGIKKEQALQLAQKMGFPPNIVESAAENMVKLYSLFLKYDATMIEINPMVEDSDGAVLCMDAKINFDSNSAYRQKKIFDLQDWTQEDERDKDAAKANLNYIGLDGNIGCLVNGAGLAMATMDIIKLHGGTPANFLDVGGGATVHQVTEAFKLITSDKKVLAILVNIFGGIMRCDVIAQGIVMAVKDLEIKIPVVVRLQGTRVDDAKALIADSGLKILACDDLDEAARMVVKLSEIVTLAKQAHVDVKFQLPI

Assay [8] concerns the target Tyrosine-protein kinase SYK (Homo sapiens, UniProt P43405).
Assay [9] concerns the target Tyrosine-protein kinase ABL2 (Homo sapiens, UniProt P42684).
The target in assay [10] is Mitogen-activated protein kinase 9 (Homo sapiens, UniProt P45984).
Chain of Mitogen-activated protein kinase 9 (P45984 whole entry): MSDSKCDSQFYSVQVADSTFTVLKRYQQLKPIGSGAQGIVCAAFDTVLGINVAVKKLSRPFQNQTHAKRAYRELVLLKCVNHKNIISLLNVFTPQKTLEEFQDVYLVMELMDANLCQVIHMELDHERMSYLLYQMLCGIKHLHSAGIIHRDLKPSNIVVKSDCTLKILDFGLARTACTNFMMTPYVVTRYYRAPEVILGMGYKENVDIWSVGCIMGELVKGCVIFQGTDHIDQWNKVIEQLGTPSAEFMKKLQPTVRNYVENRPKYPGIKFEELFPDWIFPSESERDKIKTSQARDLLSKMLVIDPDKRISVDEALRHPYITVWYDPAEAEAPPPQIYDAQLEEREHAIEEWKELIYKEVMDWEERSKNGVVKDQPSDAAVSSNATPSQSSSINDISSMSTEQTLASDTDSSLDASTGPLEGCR
Assay [11] addresses Protein kinase C theta type (Homo sapiens, UniProt Q04759).
Note: in the data inactive means no Kd found up to 30 µM.

Chain of Tyrosine-protein kinase CSK (P41240 whole entry): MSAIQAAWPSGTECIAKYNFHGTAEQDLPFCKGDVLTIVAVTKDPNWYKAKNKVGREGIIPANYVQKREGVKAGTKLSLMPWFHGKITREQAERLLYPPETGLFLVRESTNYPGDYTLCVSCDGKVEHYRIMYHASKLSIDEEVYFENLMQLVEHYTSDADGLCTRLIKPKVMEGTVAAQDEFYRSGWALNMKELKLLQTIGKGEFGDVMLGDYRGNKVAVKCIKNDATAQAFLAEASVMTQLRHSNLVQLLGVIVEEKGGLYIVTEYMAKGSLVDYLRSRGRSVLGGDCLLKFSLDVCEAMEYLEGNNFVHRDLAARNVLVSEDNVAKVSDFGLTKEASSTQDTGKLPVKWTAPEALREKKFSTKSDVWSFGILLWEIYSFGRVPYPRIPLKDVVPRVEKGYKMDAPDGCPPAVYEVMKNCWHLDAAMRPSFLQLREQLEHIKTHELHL
Chain of Wee1-like protein kinase (P30291 whole entry): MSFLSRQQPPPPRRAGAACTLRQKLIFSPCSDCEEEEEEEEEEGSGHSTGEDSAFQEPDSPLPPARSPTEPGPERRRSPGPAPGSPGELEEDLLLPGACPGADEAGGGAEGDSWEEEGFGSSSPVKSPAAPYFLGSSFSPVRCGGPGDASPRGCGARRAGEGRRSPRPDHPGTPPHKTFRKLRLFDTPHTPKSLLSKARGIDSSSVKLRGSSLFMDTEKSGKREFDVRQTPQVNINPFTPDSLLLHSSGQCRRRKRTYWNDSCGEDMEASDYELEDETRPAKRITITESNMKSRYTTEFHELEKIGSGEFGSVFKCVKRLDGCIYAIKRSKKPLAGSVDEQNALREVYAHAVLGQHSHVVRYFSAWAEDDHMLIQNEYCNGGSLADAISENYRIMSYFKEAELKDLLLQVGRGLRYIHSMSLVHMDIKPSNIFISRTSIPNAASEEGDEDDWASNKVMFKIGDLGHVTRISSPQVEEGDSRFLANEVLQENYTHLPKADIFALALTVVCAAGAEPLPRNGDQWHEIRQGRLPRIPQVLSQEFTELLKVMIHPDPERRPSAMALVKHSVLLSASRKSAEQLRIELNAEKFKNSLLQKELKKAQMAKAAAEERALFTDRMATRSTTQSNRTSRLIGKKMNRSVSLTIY
Chain of Protein kinase C theta type (Q04759 whole entry): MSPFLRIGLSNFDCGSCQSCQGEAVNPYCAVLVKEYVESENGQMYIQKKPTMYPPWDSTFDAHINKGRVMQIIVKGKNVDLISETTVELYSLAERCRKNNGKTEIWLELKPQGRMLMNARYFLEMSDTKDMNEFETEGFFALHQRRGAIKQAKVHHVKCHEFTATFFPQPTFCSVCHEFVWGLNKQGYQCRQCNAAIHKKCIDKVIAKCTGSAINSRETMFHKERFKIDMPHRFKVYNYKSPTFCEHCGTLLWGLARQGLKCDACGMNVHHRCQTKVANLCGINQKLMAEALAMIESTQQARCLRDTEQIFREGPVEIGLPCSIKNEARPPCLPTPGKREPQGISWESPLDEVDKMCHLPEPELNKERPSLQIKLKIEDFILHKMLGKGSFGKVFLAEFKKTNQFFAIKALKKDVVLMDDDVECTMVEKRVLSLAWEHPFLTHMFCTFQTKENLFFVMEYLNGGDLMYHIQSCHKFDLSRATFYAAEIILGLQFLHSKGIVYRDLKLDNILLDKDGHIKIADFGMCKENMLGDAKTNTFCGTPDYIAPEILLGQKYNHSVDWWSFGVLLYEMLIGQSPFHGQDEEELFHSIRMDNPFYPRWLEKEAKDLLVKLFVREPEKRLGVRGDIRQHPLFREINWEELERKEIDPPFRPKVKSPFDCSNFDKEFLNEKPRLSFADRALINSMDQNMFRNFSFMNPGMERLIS
Chain of Tyrosine-protein kinase ABL2 (P42684 whole entry): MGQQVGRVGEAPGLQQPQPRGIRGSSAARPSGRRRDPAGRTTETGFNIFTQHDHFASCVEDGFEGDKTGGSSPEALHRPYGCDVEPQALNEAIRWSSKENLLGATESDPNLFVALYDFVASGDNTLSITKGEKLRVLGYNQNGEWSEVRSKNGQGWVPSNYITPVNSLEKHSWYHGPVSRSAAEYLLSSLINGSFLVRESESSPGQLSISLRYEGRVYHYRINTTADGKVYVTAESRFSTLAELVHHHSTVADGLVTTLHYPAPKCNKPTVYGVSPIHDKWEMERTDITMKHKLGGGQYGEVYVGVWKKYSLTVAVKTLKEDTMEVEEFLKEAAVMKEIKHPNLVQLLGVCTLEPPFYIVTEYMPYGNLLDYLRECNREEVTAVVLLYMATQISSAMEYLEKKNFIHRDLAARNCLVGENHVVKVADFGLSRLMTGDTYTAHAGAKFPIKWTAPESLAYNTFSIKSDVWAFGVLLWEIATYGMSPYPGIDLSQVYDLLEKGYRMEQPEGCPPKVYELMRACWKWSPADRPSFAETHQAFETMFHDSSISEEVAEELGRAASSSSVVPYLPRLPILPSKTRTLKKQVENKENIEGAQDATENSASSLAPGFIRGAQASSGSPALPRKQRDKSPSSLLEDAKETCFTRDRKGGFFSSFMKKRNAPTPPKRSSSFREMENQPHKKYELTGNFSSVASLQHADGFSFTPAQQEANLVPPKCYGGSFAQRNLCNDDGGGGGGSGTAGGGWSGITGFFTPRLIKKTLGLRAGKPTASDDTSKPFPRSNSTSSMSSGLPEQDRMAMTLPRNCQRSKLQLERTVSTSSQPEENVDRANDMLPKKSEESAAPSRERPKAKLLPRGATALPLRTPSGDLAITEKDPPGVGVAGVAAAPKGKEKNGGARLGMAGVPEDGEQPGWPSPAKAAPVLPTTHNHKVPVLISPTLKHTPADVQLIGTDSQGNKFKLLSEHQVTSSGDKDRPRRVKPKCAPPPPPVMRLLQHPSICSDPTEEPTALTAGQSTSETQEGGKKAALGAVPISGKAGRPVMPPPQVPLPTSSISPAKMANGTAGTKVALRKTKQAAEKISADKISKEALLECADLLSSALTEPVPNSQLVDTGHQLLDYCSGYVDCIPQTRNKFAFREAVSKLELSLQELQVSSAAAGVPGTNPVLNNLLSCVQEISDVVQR

For `COc1cc(Nc2ncc3c(n2)-c2ccc(Cl)cc2C(c2c(F)cccc2OC)=NC3)ccc1C(=O)O` [ALISERTIB], the Kd (in assay [1]; on Wee1-like protein kinase; in [2]; in assay [3]; in [4]; in assay [5]) was > 30 µM (inactive) throughout. Also, the Kd in assay [6] and in assay [7] was > 30 µM (inactive) in each case.

For the compound `CNC(=O)c1ccccc1Sc1ccc2c(/C=C/c3ccccn3)n[nH]c2c1` [AXITINIB], the Kd in assay [1] was 2.3 µM (active); in assay [2], > 30 µM (inactive); in [4], > 30 µM (inactive); in assay [5], > 30 µM (inactive); in assay [7], > 30 µM (inactive).

`CC(C)(C)c1nc(-c2cccc(NS(=O)(=O)c3c(F)cccc3F)c2F)c(-c2ccnc(N)n2)s1` [DABRAFENIB]: the Kd in assay [1] is > 30 µM (inactive); on Wee1-like protein kinase, > 30 µM (inactive); in [2], > 30 µM (inactive); in assay [3], 0.851 µM (active); in [4], > 30 µM (inactive); in assay [8] it was > 30 µM (inactive). The Kd in assay [5] was > 30 µM (inactive); in assay [6] it was > 30 µM (inactive); in assay [9], 0.305 µM (active).

Regarding `Cn1cc(C2=C(c3cn(C4CCN(Cc5ccccn5)CC4)c4ccccc34)C(=O)NC2=O)c2ccccc21` [ENZASTAURIN], the Kd in assay [1], in assay [2], in [4], in [5] and in assay [7] was > 30 µM (inactive) throughout.

In the case of `Cc1cccc(-c2nn3c(c2-c2ccnc4ccc(C(N)=O)cc24)CCC3)n1` [GALUNISERTIB], the Kd (in assay [1]; in assay [10]; on Wee1-like protein kinase; in [3]; in assay [4]; in assay [8]) was > 30 µM (inactive) in each case. The Kd in assay [5], in assay [6], in [7], in assay [9] and in assay [11] was > 30 µM (inactive) in each case.

`C[C@@H](Oc1cc(-n2cnc3ccc(CN4CCN(C)CC4)cc32)sc1C(N)=O)c1ccccc1C(F)(F)F` [GSK-461364]: the Kd in [1], in [2], in assay [4], in assay [5] and in assay [7] was > 30 µM (inactive) throughout.

In the case of `NC1(c2ccc(-c3nc4ccn5c(=O)[nH]nc5c4cc3-c3ccccc3)cc2)CCC1` [MK-2206], the Kd (in [1]; in assay [10]; on Wee1-like protein kinase; in [3]; in assay [4]; in [8]) was > 30 µM (inactive) in each case. In addition, the Kd in assay [5], in assay [6], in [7], in assay [9] and in [11] was > 30 µM (inactive) throughout.

For the compound `FC(F)(F)c1ccc(/C=C/c2nc(COc3ccc(CCCCn4ccnn4)cc3)co2)cc1` [MUBRITINIB], the Kd (in assay [1]; in [10]; on Wee1-like protein kinase; in [3]; in assay [4]; in assay [8]) was > 30 µM (inactive) throughout. The Kd in assay [5], in [6], in assay [7], in [9] and in assay [11] was > 30 µM (inactive) in each case.

Take `CC(=O)NCC(=O)N1[C@@H]2CC[C@H]1c1ccc(Nc3ncc(C(F)(F)F)c(NC4CCC4)n3)cc12` [PF-03814735]: the Kd is 0.01 µM (active) in assay [1]; 1.59 µM (active) on Wee1-like protein kinase; > 30 µM (inactive) in assay [2]; > 30 µM (inactive) in assay [3]; > 30 µM (inactive) in assay [4]; > 30 µM (inactive) in assay [5]. Besides, the Kd in assay [6] is 2.19 µM (active); in assay [9] it was > 30 µM (inactive).

On to `CNC(=O)c1cc(Oc2ccc(NC(=O)Nc3cc(C(C)(C)C)nn3-c3ccc4ncccc4c3)c(F)c2)ccn1` [REBASTINIB], for which the Kd in assay [1] was > 30 µM (inactive); in assay [10] it was 0.98 µM (active); on Wee1-like protein kinase it was > 30 µM (inactive); in [3], 0.41 µM (active); in [4], > 30 µM (inactive); in [8], 1.83 µM (active). Moreover, the Kd was > 30 µM (inactive) in assay [5]; > 30 µM (inactive) in assay [6]; > 30 µM (inactive) in [7]; 0.135 µM (active) in assay [9]; > 30 µM (inactive) in assay [11].

On to `O=C(NOCCO)c1cc(CN2OCCCC2=O)c(F)c(F)c1Nc1ccc(I)cc1F` [RO-4987655], for which the Kd in [1], in [2], in assay [4], in [5] and in assay [7] was > 30 µM (inactive) each time.

On to `Cc1cc(Nc2ncnc3ccc(NC4=NC(C)(C)CO4)cc23)ccc1Oc1ccn2ncnc2c1` [TUCATINIB], for which the Kd (in [1]; in [10]; at Wee1-like protein kinase; in [3]; in assay [4]; in assay [8]) was > 30 µM (inactive) each time. For the same compound, the Kd in [5], in assay [6], in assay [7], in assay [9] and in assay [11] was > 30 µM (inactive) throughout.
